Test system: IL-1β production in PMA-differentiated THP-1 cells
Experiment: IL-1β production in PMA-differentiated THP-1 cells stimulated with gramicidin (hTHP-1 assay, 2% fetal bovine serum; Procedures 1-3)
Type: cell-based, human
Conditions: hTHP-1 assay containing 2% fetal bovine serum; class symbols; read-out: hTHP-1 IC50 (Average IC50 of compounds in hTHP-1 assay)
Procedure, shortened: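 Readout is HTRF of IL-1β in cell-free supernatant after 2 h gramicidin (5 μM) challenge. Cells: THP-1 differentiated with PMA 20 ng/ml for 16-18 h, plated 50,000/well in 2% FBS RPMI, exposed to compound 1 h beforehand at final 100–0.0017 μM, DMSO 0.37%.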

| SMILES | IC50 [nM] |
| --- | --- |
| COC(C)(C)c1ccc(S(N)(=O)=NC(=O)Nc2c3c(cc4c2CCC4)CCC3)cc1 (single isomer, unassigned) [Example 399, (R) or (S)-N′-((1,2,3,5,6,7-hexahydro-s-indacen-4-yl)carbamoyl)-4-(2-methoxypropan-2-yl)benzenesulfonimidamide] | 200 to 1000 |
| COC(C)(C)c1ccc(S(N)(=O)=NC(=O)Nc2c3c(cc4c2CCC4)CCC3)cc1 (single isomer, unassigned) [Example 400, (S) or (R)-N′-((1,2,3,5,6,7-hexahydro-s-indacen-4-yl)carbamoyl)-4-(2-methoxypropan-2-yl)benzenesulfonimidamide] | 5000 to 30000 |
| CNCc1ccc(S(N)(=O)=NC(=O)Nc2c3c(cc4c2CCC4)CCC3)c(F)c1 (single isomer, unassigned) [Example 403, (R) or (S)-2-fluoro-N′-((1,2,3,5,6,7-hexahydro-s-indacen-4-yl)carbamoyl)-4-((methylamino)methyl)benzenesulfonimidamide] | 200 to 1000 |
| CNCc1ccc(S(N)(=O)=NC(=O)Nc2c3c(cc4c2CCC4)CCC3)c(F)c1 (single isomer, unassigned) [Example 404, (S) or (R)-2-fluoro-N′-((1,2,3,5,6,7-hexahydro-s-indacen-4-yl)carbamoyl)-4-((methylamino)methyl)benzenesulfonimidamide] | 5000 to 30000 |
| CN1CCCC1c1ccc(S(=N)(=O)NC(=O)Nc2c3c(cc4c2CCC4)CCC3)cc1 (single isomer, unassigned) [Example 407, (R,R) or (R,S) or (S,S) or (S,R)-N-((1,2,3,5,6,7-hexahydro-s-indacen-4-yl)carbamoyl)-4-(1-methylpyrrolidin-2-yl)benzenesulfonimidamide] | 5000 to 30000 |
| CN1CCCC1c1ccc(S(=N)(=O)NC(=O)Nc2c3c(cc4c2CCC4)CCC3)cc1 (single isomer, unassigned) [Example 408, (S,R) or (S,S) or (R,S) or (R,R)-N-((1,2,3,5,6,7-hexahydro-s-indacen-4-yl)carbamoyl)-4-(1-methylpyrrolidin-2-yl)benzenesulfonimidamide] | 1000 to 5000 |
| CN1CCCC1c1ccc(S(=N)(=O)NC(=O)Nc2c3c(cc4c2CCC4)CCC3)cc1 (single isomer, unassigned) [Example 409, (R,S) or (S,R) or (S,R) or (R,R)-N-((1,2,3,5,6,7-hexahydro-s-indacen-4-yl)carbamoyl)-4-(1-methylpyrrolidin-2-yl)benzenesulfonimidamide] | 200 to 1000 |
| CN1CCCC1c1ccc(S(=N)(=O)NC(=O)Nc2c3c(cc4c2CCC4)CCC3)cc1 (single isomer, unassigned) [Example 410, (R,S) or (S,R) or (R,S or (S,S)-N-((1,2,3,5,6,7-hexahydro-s-indacen-4-yl)carbamoyl)-4-(1-methylpyrrolidin-2-yl)benzenesulfonimidamide] | 40 to 200 |
| CN(C)Cc1ccc(S(N)(=O)=NC(=O)Nc2c3c(cc4c2CCC4)CCC3)nc1 (single isomer, unassigned) [Example 413, (R) or (S)-5-((dimethylamino)methyl)-N′-((1,2,3,5,6,7-hexahydro-s-indacen-4-yl)carbamoyl)pyridine-2-sulfonimidamide] | 200 to 1000 |
| CN(C)Cc1ccc(S(N)(=O)=NC(=O)Nc2c3c(cc4c2CCC4)CCC3)nc1 (single isomer, unassigned) [Example 414, (S) or (R)-5-((dimethylamino)methyl)-N′-((1,2,3,5,6,7-hexahydro-s-indacen-4-yl)carbamoyl)pyridine-2-sulfonimidamide] | 5000 to 30000 |
| CC(=O)c1ncc(S(N)(=O)=NC(=O)Nc2c3c(cc4c2CCC4)CCC3)s1 (single isomer, unassigned) [Example 417, (R) or (S)-2-acetyl-N′-((1,2,3,5,6,7-hexahydro-s-indacen-4-yl)carbamoyl)thiazole-5-sulfonimidamide] | 1000 to 5000 |
